Assay results taken from US12084399B2, “Crystalline tranilast salts and their pharmaceutical use” (NUFORMIX TECHNOLOGIES LIMITED, priority 2018, dated 2024).
In brackets after ≈: the same amount, converted by molar mass. Counter-ions that a name gives are not always drawn. Like-named read-outs stand apart in the source and are kept apart here.

Assays:
[1] = Solid-state accelerated stability, 40° C. and 75% relative humidity, 7 days, XRPD; type: physicochemical
Protocol: A study was carried out to examine the physical stability of the crystalline 1:1 tranilast N-methylglucamine salt polymorphs with respect to solid form conversion over time under accelerated conditions. […] After this time each sample was analysed by XRPD to observe any potential form changes.
A study was carried out to examine the physical stability of the 1:1 crystalline tranilast salts with respect to solid form conversion or deliquescence over time under accelerated conditions. […] Each sample was analysed by XRPD to observe any potential form changes.

[2] = for Solubility (mg/ml) in terms of the mass of tranilast dissolved: water pH7.0, 25° C., 24 hours
[3] = Solid-state photostability study (UV irradiation, HPLC); details: for solid-state photostability (in words): UV irradiation up to 24 hours
Protocol: A 6-10 mg sample of each of the tranilast forms under investigation was spread over the bottom surface of a clear glass vial.

[4] = Solution photostability study (UV irradiation, HPLC); details: 2 mg dissolved in water (1 ml)
Protocol: (§1) A 2 mg sample of the four salt forms under investigation were each weighed into a clear glass vial. Each sample was dissolved in water (1 ml).

[5] = Gravimetric vapour sorption (GVS) analysis; type: physicochemical; details: for moisture reversibly absorbed (GVS): across the 90% humidity range at 25° C.
Description: The moisture sorption isotherm graph obtained for the crystalline 1:1 tranilast N-methylglucamine Form I salt is shown in FIG. 5.
The moisture sorption isotherm graph obtained for the crystalline 1:1 tranilast N-methylglucamine Form II salt is shown in FIG. 10.

[6] = pKa values and ΔpKa of tranilast and the salt formers
Description: When two solid components are successfully crystallised together to form a two-component molecular complex with a new unique solid-state crystalline structure this could result in either a salt or a cocrystal. Whether a salt or a cocrystal is formed is dependent on whether a proton transfer takes place between the two different components of the complex. If a proton is transferred from one component to the other resulting in ionic bonding then a crystalline salt results. If no proton transfer occurs and the components remain in their neutral state, held together only by hydrogen bonds, Van der Waals bonds etc, then a cocrystal is formed. Whether or not proton transfer takes place is governed by the difference in pKa values for the acidic and basic functional groups of each component.

[7] = buffer, 2 mg/ml
Protocol: as §1

[8] = cited from earlier work
[9] = Solid-state stability under high humidity, 25° C. and 100% relative humidity, 7 days, XRPD; type: physicochemical; details: sealed container
Protocol: A second study was carried out to explore the solid-state stability of the crystalline 1:1 tranilast N-methylglucamine salt polymorphs under high humidity. Forms I and II of 1:1 tranilast N-methylglucamine salt (50 mg) were separately placed in a sealed container at 25° C. and 100% relative humidity and stored under these conditions for 7 days. After this time each sample was analysed by XRPD to observe any potential form changes.

[10] = Solid-state stability under high storage temperature, 90° C., 7 days, XRPD; type: physicochemical; details: oven at 90° C.
Protocol: A third study was carried out to explore the solid-state stability of the crystalline 1:1 tranilast N-methylglucamine salt polymorphs under high storage temperatures. Forms I and II of 1:1 tranilast N-methylglucamine salt (50 mg) were stored in an oven at 90° C. for 7 days. After this time each sample was analysed by XRPD to observe any potential form changes.

[11] = 600 mg daily dosage, inter-patient variation; cited from earlier work
[12] = Dissolution study in 5% aqueous dextrose solution; type: physicochemical; details: saline or isotonic, thermodynamic from solid, 50 ml 5% aqueous dextrose solution
Protocol: As this invention also relates to a method of preparing a liquid pharmaceutical formulation of tranilast for delivery, for example, as an injectable formulation, a liquid oral formulation or a nebulised inhaled formulation a study was also carried out to explore the dissolution rates of the crystalline tranilast salts of this invention in a suitable media. As liquid pharmaceutical formulations are usually made up in-situ at the bedside for immediate delivery it is important that these new solid forms of tranilast dissolve almost instantaneously for them to be suitable for use in a liquid pharmaceutical formulation. Whilst liquid oral formulations could be achieved by simply dissolving a drug in water prior to administration (the high aqueous solubility of the new crystalline tranilast salts would make this possible), a liquid formulation for inhaled or intravenous delivery requires the dissolution media to be isotonic. This is often achieved by using saline (0.9% sodium chloride in water) as the liquid formulation media. […] An alternative isotonic media suitable for preparing liquid pharmaceutical formulations for inhaled or intravenous administration is 5% aqueous dextrose solution. […] The results of this study can be seen in FIG. 41.

[13] = exposed to light, listed as pure crystalline tranilast; cited from earlier work
[14] = cited from earlier work; remark: listed apart in the source
[15] = dissolved or stored in solution, UV exposure; cited from earlier work
[16] = Dissolution study in simulated intestinal fluid (FaSSIF V2); type: physicochemical; details: 50 ml FaSSIF V2, pH 6.5, 37° C.
Description: For BCS class II drugs, such as tranilast, the rate of dissolution of the drug form used in the gastrointestinal media can be the controlling factor in the overall absorption and thus the bioavailability of an oral drug. This becomes even more influential as the dose of a drug increases. For conditions such as fibrosis or cancer where a higher dose of tranilast may be needed for successful treatment, finding a form of tranilast that has a high dissolution rate is important. […] Pat. […] The dissolution study was carried out using the Pion inForm® instrument. Detection and quantification of tranilast was performed by in-situ UV-spectroscopy using a fibre-optic probe, allowing instantaneous data collection from the point of sample introduction.

[17] = cited from earlier work; remark: listed apart in the source
[18] = sealed container, 40° C. and 75% relative humidity, 7 days

COc1ccc(/C=C/C(=O)Nc2ccccc2C(=O)[O-])cc1OC.O.[K+] [Tranilast Salt Potassium Monohydrate, Crystalline 1:1 Tranilast Potassium Monohydrate Salt]
deliquescence [1, 18]: no signs of deliquescence | solid form conversion (XRPD) [1, 18]: retained their original crystalline form

CCNCC.COc1ccc(/C=C/C(=O)Nc2ccccc2C(=O)O)cc1OC [Tranilast Salt Diethylamine, Crystalline 1:1 Tranilast Diethylamine Salt]
Solubility (mg/ml) in terms of the mass of tranilast dissolved [2]: 18 to 20 mg/mL | deliquescence [1, 18]: no signs of deliquescence | solid form conversion (XRPD) [1, 18]: retained their original crystalline form | solid-state photostability (in words) ([3]; solid state): photostable

CNC[C@H](O)[C@@H](O)[C@H](O)[C@H](O)CO [N-methylglucamine Form II]
% tranilast remaining after UV exposure ([3]; 2 h): 99.50% | % tranilast remaining after UV exposure ([3]; 6 h): 99.58% | % tranilast remaining after UV exposure ([3]; 24 h): 99.51%

CCNC[C@H](O)[C@@H](O)[C@H](O)[C@H](O)CO.COc1ccc(/C=C/C(=O)Nc2ccccc2C(=O)O)cc1OC [Tranilast Salt N-ethylglucamine, Crystalline 1:1 Tranilast N-Ethylglucamine Salt]
deliquescence [1, 18]: no signs of deliquescence | solid form conversion (XRPD) [1, 18]: retained their original crystalline form

CCNCC [Diethylamine]
% tranilast remaining after UV exposure ([4]; 2 hrs): 92.06% | % tranilast remaining after UV exposure ([4]; 6 hrs): 52.30% | % tranilast remaining after UV exposure ([4]; 24 hrs): 20.72% | % tranilast remaining after UV exposure ([3]; solid state, 2 hrs): 99.57% | % tranilast remaining after UV exposure ([3]; solid state, 6 hrs): 99.61% | % tranilast remaining after UV exposure ([3]; solid state, 24 hrs): 99.63%

COc1ccc(/C=C/C(=O)Nc2ccccc2C(=O)O)cc1OC.OCCNCCO [Tranilast Salt Diethanolamine, Crystalline Tranilast Diethanolamine Salt]
deliquescence [1, 18]: no signs of deliquescence | solid form conversion (XRPD) [1, 18]: retained their original crystalline form

COc1ccc(/C=C/C(=O)Nc2ccccc2C(=O)O)cc1OC.NCCO [Tranilast Salt Ethanolamine, Crystalline Tranilast Ethanolamine Salt]
deliquescence [1, 18]: no signs of deliquescence | solid form conversion (XRPD) [1, 18]: retained their original crystalline form

CNC[C@H](O)[C@@H](O)[C@H](O)[C@H](O)CO.COc1ccc(/C=C/C(=O)Nc2ccccc2C(=O)O)cc1OC [Tranilast Salt N-methylglucamine Form II, Crystalline 1:1 Tranilast N-methylglucamine Form II Salt]
moisture reversibly absorbed (GVS) ([5]; listed as crystalline 1:1 tranilast N-methylglucamine form II salt): 0.42 % w/w

NCCCC[C@H](N)C(=O)O [Lysine]
ΔpKa [6]: 5.70

CCNC[C@H](O)[C@@H](O)[C@H](O)[C@H](O)CO [N-ethylglucamine]
% tranilast remaining after UV exposure ([7]; 2 h): 84.13% | % tranilast remaining after UV exposure ([7]; 6 h): 58.20% | % tranilast remaining after UV exposure ([7]; 24 h): 35.90% | pKa ([8]; protonated basic functional group of the salt former): 9.52 | ΔpKa [6]: 6.27 | % tranilast remaining after UV exposure ([3]; 2 h): 99.55% | % tranilast remaining after UV exposure ([3]; 6 h): 99.61% | % tranilast remaining after UV exposure ([3]; 24 h): 99.47%

CNC[C@H](O)[C@@H](O)[C@H](O)[C@H](O)CO [N-methylglucamine]
ΔpKa ([6]; pKa (protonated base) - pKa (acid), salt former versus tranilast): 6.27

NCCCC[C@H](N)C(=O)O [L-Lysine]
Solubility (mg/ml) in terms of the mass of tranilast dissolved [2]: 277 to 283 mg/mL | % tranilast remaining after UV exposure ([4]; 2 hrs): 92.53% | % tranilast remaining after UV exposure ([4]; 6 hrs): 55.98% | % tranilast remaining after UV exposure ([4]; 24 hrs): 21.03% | % tranilast remaining after UV exposure ([3]; solid state, 2 hrs): 99.35% | % tranilast remaining after UV exposure ([3]; solid state, 6 hrs): 99.53% | % tranilast remaining after UV exposure ([3]; solid state, 24 hrs): 99.54%

CNC[C@H](O)[C@@H](O)[C@H](O)[C@H](O)CO.COc1ccc(/C=C/C(=O)Nc2ccccc2C(=O)O)cc1OC [Tranilast Salt N-methylglucamine Form I, Crystalline 1:1 Tranilast N-methylglucamine Form I Salt]
solid form conversion (XRPD) [9]: retained their original crystalline form | solid form conversion (XRPD) [10]: retained their original crystalline form | aqueous solubility (mass of salt) ([2]; pH 7): greater than 1000 mg/ml | solid form conversion (XRPD) [1, 18]: retained their original crystalline form | form conversion in GVS (XRPD) ([5]; XRPD of the sample at 0% RH and 90% RH): did not demonstrate any form conversion | moisture reversibly absorbed (GVS) ([5]; listed as crystalline 1:1 tranilast N-methylglucamine Form I salt): 1.4 % w/w

COc1ccc(/C=C/C(=O)Nc2ccccc2C(=O)O)cc1OC [Tranilast, 2-[[3-(3,4-dimethoxyphenyl)-1-oxo-2-propenyl]amino] benzoic acid]
pKa ([8]; carboxylic acid group of tranilast): 3.25 | plasma concentrations of the drug [11]: 30 to 300 µM | solubility at 1 minute ([12]; 1 minute): 1 µg/mL (≈ 3.05 µM) | solubility at 1 hour ([12]; 1 hour): 60 µg/mL (≈ 183 µM) | solid-state photostability (in words) [13]: photostable | solubility in pH 1.2 buffer solution ([14]; pH 1.2 buffer solution): 0.7 μg/ml | solubility in water ([14]; water): 14.5 µg/mL (≈ 44.3 µM) | Solubility ([14]; water, comparative literature value in Table 16): 14.5 µg/mL (≈ 44.3 µM) | photochemical stability in solution (in words) [15]: photochemically unstable

COc1ccc(/C=C/C(=O)Nc2ccccc2C(=O)O)cc1OC.NCCCC[C@H](N)C(=O)O [Tranilast Salt L-Lysine, Crystalline 1:1 Tranilast L-Lysine Salt]
deliquescence [1]: no signs of deliquescence | solid form conversion (XRPD) [1]: retained their original crystalline form | solid-state photostability (in words) ([3]; solid state): photostable

COc1ccc(/C=C/C(=O)Nc2ccccc2C(=O)O)cc1OC.NC(=O)c1cccnc1 [1:1 tranilast nicotinamide cocrystal]
solubility reached after 30 seconds ([16]; 30 seconds): 2700 µg/mL | solubility after 5 minutes ([16]; 5 minutes): 1950 µg/mL | solubility after 20 minutes ([16]; 20 minutes): 1700 µg/mL

COc1ccc(/C=C/C(=O)Nc2ccccc2C(=O)O)cc1OC [crystalline 1:1 tranilast sodium salt]
apparent solubility relative to pure crystalline tranilast (in words) [17]: lower apparent solubility than pure tranilast | apparent solubility relative to pure crystalline tranilast (in words) ([17]; listed as crystalline tranilast sodium salt): even less than that of pure tranilast | solubility at 20 minutes ([16]; simulated intestinal fluid (FaSSIF V2), thermodynamic from solid, 20 minutes): 300 µg/mL
